The source of these data is patent publication US10329302B2, “Bicyclic-fused heteroaryl or aryl compounds” (Pfizer Inc., priority 2014, dated 2019).

The test system of one assay is Female Lewis rats. The assay is described as follows: In Vivo Rat Collagen-Induced Arthritis Model. The following applies: for days on which hind paw swelling was significantly reduced (t-test, p<0.05 vs. vehicle): CIA Lewis rats, paw volume by plethysmograph. As to the method:
In Vivo Rat Collagen-Induced Arthritis Model.
Efficacy of IRAK4 compounds of the present invention was also evaluated in a rat in vivo model of rheumatoid arthritis (M. Hegen, J. C. Keith, Jr, M. Collins, C. L. Nickerson-Nutter, Ann. Rheum. Dis. 2008, 67, 1505-1515). An exemplary protocol for this in vivo model follows.
Female Lewis rats, approximately 7 weeks old, were immunized with an emulsion of type II collagen (CII) and incomplete Freund's adjuvant (IFA) on day 0 and received a boost of CII/IFA on day 7. Hind paw volume increase was taken by plethysmograph. Animals were randomly enrolled into treatment groups based on the development of disease. Beginning on day 11 post immunization, rats were enrolled into random treatment groups based on an increase in a single hind paw volume compared to day 7 post immunization baseline measurements.
Ten rats were enrolled per treatment group with the exception of the naive control group, which contained two rats. Day 0 was designated as the first treatment day, and paw measurements are taken daily by plethysmograph. The rats were weighed on a daily basis.
IRAK4 inhibitors are efficacious in the Lewis rat model of collagen-induced arthritis.

A further assay relates to serum TNF. In words: In Vivo Mouse LPS/D-Gal Challenge Model. To be noted: oral. Here is the method:
In Vivo Mouse LPS/D-Gal Challenge Model.
Efficacy of IRAK4 compounds of the present invention was also evaluated in an in vivo mouse model of endotoxin induced (Lipopolysaccharide (LPS)) inflammation. See: S. Copeland, H. W. Warren, S. F. Lowry, S. E. Calvano, and D. Remick, Clin. Diagn. Lab. Immnol. 2005, 12(1), 60-67. An exemplary protocol for this in vivo model follows.
Female C57/BL6 mice, 8 to 10 weeks old, are orally administered either vehicle or formulated IRAK-4 compound 1 hour prior to the challenge. Vehicle or IRAK4 compound is administered by oral gavage at a volume of 10 mL/kg. One hour post oral delivery of vehicle or compound, the animals are challenged with an intraperitoneal injection (IP) of a solution containing 1 μg/mL LPS and 80 mg/mL D-gal. Each mouse is injected with […] of the solution, for a final challenge dose of 100 ng LPS and 8 mg D-gal. Ninety minutes post LPS/D-gal challenge, animals are euthanized and blood collected. Blood is allowed to clot at room temperature and serum is separated by centrifugation and stored at −80° C. for analysis. Serum TNF and IL-6 are measured by Meso Scale Discovery (MSD) multiplex platform.
The groups consisted of N=10 animals/group. Naïve animals and vehicle control groups were run with each study. Mean cytokine data was plotted and students T-test was performed to calculate significance (t-test, p<0.05 vs. vehicle) of IRAK4 treated group vs. vehicle treated group. Percent inhibition of cytokine induction was calculated for IRAK4 treated group vs. vehicle treated group.
Table 4 contains data from multiple studies with columns for Compound, Dose in mg/kg (mpk) and % inhibition of serum TNF. In cases where doses of certain compounds were repeated in multiple experiments, the average percent inhibition of TNF and standard deviation is shown in the table.

Assay [1] has as its target human IRAK4 kinase domain (aa 154-460) (Homo sapiens (Human), UniProt Q9NWZ3). The assay is described as follows: IRAK4 Enzymatic DELFIA Assay, Protocol B. It counts as biochemical. The following applies: human IRAK4 kinase domain (aa 154-460), 0.6 mM ATP (KM); read-out: IRAK4 DELFIA Protocol B IC50. The text has this: IRAK4 Enzymatic DELFIA Assay, Protocol B.
Assay [2] deals with R848-induced TNFα production by human peripheral blood mononuclear cells (PBMCs). In words: R848 Induced TNFα in Human PBMC Assay. It counts as cell-based. To be noted: Homo sapiens, PBMC, 3 h, read-out: R848-induced TNFa PBMC IC50 (nM).
In assay [3] the target is human IRAK4 FL (Full Length) (Homo sapiens (Human), UniProt Q9NWZ3). The assay is described as follows: IRAK4 Enzymatic DELFIA Assay, Protocol A. To be noted: human IRAK4 FL, 0.6 mM ATP (KM); read-out: IRAK4 DELFIA Protocol A IC50. It counts as biochemical.
Sequence of human IRAK4 FL (Full Length) (Q9NWZ3 whole entry): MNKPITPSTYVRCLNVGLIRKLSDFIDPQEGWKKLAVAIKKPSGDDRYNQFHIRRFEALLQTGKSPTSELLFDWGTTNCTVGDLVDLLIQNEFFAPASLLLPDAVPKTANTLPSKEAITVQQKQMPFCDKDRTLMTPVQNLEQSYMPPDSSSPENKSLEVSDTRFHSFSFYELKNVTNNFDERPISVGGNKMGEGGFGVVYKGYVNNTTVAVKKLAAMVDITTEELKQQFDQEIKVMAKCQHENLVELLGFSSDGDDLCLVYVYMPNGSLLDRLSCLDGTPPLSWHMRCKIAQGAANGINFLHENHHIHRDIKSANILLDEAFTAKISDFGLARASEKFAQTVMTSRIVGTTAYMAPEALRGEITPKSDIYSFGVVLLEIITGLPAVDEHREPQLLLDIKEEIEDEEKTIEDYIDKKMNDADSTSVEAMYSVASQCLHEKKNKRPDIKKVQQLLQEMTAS

pIC50: −log10 of the molar value.

Sequence of human IRAK4 kinase domain (aa 154-460) (Q9NWZ3 154-460): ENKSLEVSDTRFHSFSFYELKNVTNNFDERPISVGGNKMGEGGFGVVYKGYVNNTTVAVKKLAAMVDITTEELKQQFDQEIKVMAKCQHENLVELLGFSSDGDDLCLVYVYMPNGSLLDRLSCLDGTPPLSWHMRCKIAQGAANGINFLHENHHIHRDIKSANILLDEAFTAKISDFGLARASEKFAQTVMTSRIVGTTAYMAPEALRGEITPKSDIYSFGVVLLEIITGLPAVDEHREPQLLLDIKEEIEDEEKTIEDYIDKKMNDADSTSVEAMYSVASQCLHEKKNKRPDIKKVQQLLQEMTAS

`Cc1ccc(-n2nc(C(C)(C)C)cc2NC(=O)Nc2ccc(OCCN3CCOCC3)c3ccccc23)cc1` [BIRB796]: the “days on which hind paw swelling was significantly reduced (t-test, p<0.05 vs. vehicle)” value in the assay on Female Lewis rats (30 mg/kg PO, QD, positive control (p38 inhibitor)) is reported as “Day 1-Day 8”.

In the case of `CC(C)Oc1cc2c(OC[C@@H]3CCC(=O)N3)nccc2cc1C(N)=O` [Example 26, 1-{[(2S)-5-oxopyrrolidin-2-yl]methoxy}-7-(propan-2-yloxy)isoquinoline-6-carboxamide], the “hind paw swelling in CIA rats” value with Female Lewis rats (10 mg/kg PO, BID) was “transiently significant reduction in hind paw swelling only on Day 5 and Day 6 post treatment”; in the assay on Female Lewis rats (therapeutic treatment BID daily for 8 days, t-test p<0.05 vs. vehicle), “reduced the hind paw swelling in CIA rats significantly”. For the same compound, the “days on which hind paw swelling was significantly reduced (t-test, p<0.05 vs. vehicle)” value is “Day 2-Day 8” in the assay on Female Lewis rats (30 mg/kg PO, BID, therapeutic treatment for 8 days) and “Day 1-Day 8 (end)” in the assay on Female Lewis rats (100 mg/kg PO, BID, therapeutic treatment for 8 days). Moreover, the “% inhib TNF” value was 27 (±19) % in the assay on serum TNF (Dose 10 mpk), 41 (±17) % in the assay with serum TNF (Dose 30 mpk) and 78 (±23) % in the assay with serum TNF (Dose 100 mpk).

With `CC(C)Oc1cc2c(OC[C@@H]3CCN3C(=O)CC#N)nccc2cc1C(N)=O` [Example 73, 1-{[(2S)-1-(cyanoacetyl)azetidin-2-yl]methoxy}-7-(propan-2-yloxy)isoquinoline-6-carboxamide], the results for the negative logarithm of the IC50 (pIC50) in assay [1] and in assay [3] were 5.94 and 5.36, respectively. In assay [2], the IC50 was determined as 1590 nM.

Take `CC(C)Oc1cc2c(OCC3CCNC(=O)C3)nccc2cc1C(N)=O` (stereo not drawn) [Example 138, 1-[(2-oxopiperidin-4-yl)methoxy]-7-(propan-2-yloxy)isoquinoline-6-carboxamide]: in assay [1], the pIC50 was 5.98.

As for `CC(C)Oc1cc2c(OC[C@]34CNC[C@H]3C4)nccc2cc1C(N)=O` [Example 139, 1-[(1S,5S)-3-azabicyclo[3.1.0]hex-1-ylmethoxy]-7-(propan-2-yloxy)isoquinoline-6-carboxamide], the negative-log IC50 (pIC50) in assay [1] is 6.59.

In the case of `CC(C)Oc1cc2c(OC[C@@]34CNC[C@@H]3C4)nccc2cc1C(N)=O` [Example 140, 1-[(1R,5R)-3-azabicyclo[3.1.0]hex-1-ylmethoxy]-7-(propan-2-yloxy)isoquinoline-6-carboxamide], the pIC50 in assay [1] was 7.08.

For the compound `CC(C)Oc1cc2c(OC[C@@H]3CC(CO)C(=O)N3)nccc2cc1C(N)=O` (stereo partly drawn) [Example 148, 1-{[(2S)-4-(hydroxymethyl)-5-oxopyrrolidin-2-yl]methoxy}-7-(propan-2-yloxy)isoquinoline-6-carboxamide], the negative-log IC50 (pIC50) in assay [1] is 7.62.

In the case of `CC(C)Oc1cc2c(OC[C@H]3COCCN3)nccc2cc1C(N)=O` [Example 158, 1-[(3R)-morpholin-3-ylmethoxy]-7-(propan-2-yloxy)isoquinoline-6-carboxamide], in assay [1], the pIC50 is 5.84.

Regarding `CC(C)Oc1cc2c(OCC3CCCN3)nccc2cc1C(N)=O` (stereo not drawn) [Example 159, 7-(propan-2-yloxy)-1-(pyrrolidin-2-ylmethoxy)isoquinoline-6-carboxamide], the pIC50 in assay [1] was 5.47.

Turning to `CC(C)Oc1cc2c(OC[C@@H]3COCCN3)nccc2cc1C(N)=O` [Example 160, 1-[(3S)-morpholin-3-ylmethoxy]-7-(propan-2-yloxy)isoquinoline-6-carboxamide], the pIC50 in assay [1] is 6.82.

As to `CC(C)Oc1cc2c(OC[C@@]34CNCC[C@@H]3C4)nccc2cc1C(N)=O` [Example 161, 1-[(1R,6S)-3-azabicyclo[4.1.0]hept-1-ylmethoxy]-7-(propan-2-yloxy)isoquinoline-6-carboxamide], the pIC50 in assay [1] is 7.06.

Take `CC(C)Oc1cc2c(OC[C@]34CNCC[C@H]3C4)nccc2cc1C(N)=O` [Example 162, 1-[(1S,6R)-3-azabicyclo[4.1.0]hept-1-ylmethoxy]-7-(propan-2-yloxy)isoquinoline-6-carboxamide]: the pIC50 in assay [1] is 7.46.

`CC(C)Oc1cc2c(OC[C@H]3NC(=O)[C@@H]4OC(C)(C)O[C@H]34)nccc2cc1C(N)=O` [Example 167, 1-{[(3aR,4R,6aR)-2,2-dimethyl-6-oxotetrahydro-3aH-[1,3]dioxolo[4,5-c]pyrrol-4-yl]methoxy}-7-(propan-2-yloxy)isoquinoline-6-carboxamide]: the pIC50 in assay [1] was 7.72.

On to `COc1cc2c(OC[C@@H]3CCC(=O)N3)cccc2cc1C(N)=O` [Example 173, 3-methoxy-5-{[(2S)-5-oxopyrrolidin-2-yl]methoxy}naphthalene-2-carboxamide], for which the figures for the “% inhib TNF” value in the assay with serum TNF (Dose 30 mpk) and in the assay on serum TNF (Dose 100 mpk) were 55% and 98%, respectively.

Take `CC(C)Oc1cc2c(OC[C@]34CNC(=O)[C@H]3C4)nccc2cc1C(N)=O` [Example 175, 1-{[(1S,5S)-4-oxo-3-azabicyclo[3.1.0]hex-1-yl]methoxy}-7-(propan-2-yloxy)isoquinoline-6-carboxamide]: the pIC50 in assay [1] was 7.00.

Turning to `CC(C)Oc1cc2c(OC[C@@H]3C[C@](O)(CC(F)(F)F)C(=O)N3)nccc2cc1C(N)=O` [Example 184, 1-{[(2S,4S)-4-hydroxy-5-oxo-4-(2,2,2-trifluoroethyl)pyrrolidin-2-yl]methoxy}-7-(propan-2-yloxy)isoquinoline-6-carboxamide], the pIC50 in assay [1] was 7.22.

With `COc1cc2c(OC[C@H]3NC(=O)[C@@H](F)[C@H]3C)nccc2cc1C(N)=O` [Example 189, 1-{[(2S,3S,4S)-4-fluoro-3-methyl-5-oxopyrrolidin-2-yl]methoxy}-7-methoxyisoquinoline-6-carboxamide], the IC50 in assay [2] was 12 nM. Also, in the assay on serum TNF (Dose 30 mpk), the “% inhib TNF” value came to 40%.

Consider `CC(C)Oc1cc2c(OCC3CCNC3)nccc2cc1C(N)=O` (stereo not drawn) [Example 191, 7-(propan-2-yloxy)-1-(pyrrolidin-3-ylmethoxy)isoquinoline-6-carboxamide], for which the pIC50 in assay [1] was 6.60.

As to `COc1cc2c(OC[C@@H]3C[C@](C)(F)C(=O)N3)cccc2cc1C(N)=O` [Example 194, 5-{[(2S,4S)-4-fluoro-4-methyl-5-oxopyrrolidin-2-yl]methoxy}-3-methoxynaphthalene-2-carboxamide], the IC50 in assay [2] is 5.2 nM. Also, in the assay on serum TNF (Dose 30 mpk), the “% inhib TNF” value is 76%. The negative logarithm of the IC50 (pIC50) in assay [3] was 9.00.

For the compound `COc1cc2c(OC[C@@H]3NC(=O)CC3(C)C)nccc2cc1C(N)=O` [Example 222, 1-{[(2R)-3,3-dimethyl-5-oxopyrrolidin-2-yl]methoxy}-7-methoxyisoquinoline-6-carboxamide], the negative-log IC50 (pIC50) in assay [1] was 5.73.

Consider `CC(C)Oc1cc2c(OC[C@@H]3NC(=O)CC3(C)C)nccc2cc1C(N)=O` [Example 223, 1-{[(2R)-3,3-dimethyl-5-oxopyrrolidin-2-yl]methoxy}-7-(propan-2-yloxy)isoquinoline-6-carboxamide], for which the pIC50 in assay [1] is 7.82.
